# Literature values in patent publication US20250339399A1, “SUPRAMOLECULAR SELF-ASSEMBLY SYSTEM” (Beijing Creatron Institute of Pharmaceutical Research Co., …, priority 2022, published 2025).
# Conditions: Cannabidiol derivatives, Table 30 (chemical structures); cited from earlier work
row,SMILES,Log P
1,"C=C(C)[C@@H]1CCC(C)=C[C@H]1c1c(O)cc(CCC)cc1O [compound 3, ((1′R,2′R)-5′-methyl-2′-(prop-1-en-2-yl)-4-propyl-1′,2′,3′,4′-tetrahydro-[1,1′-biphenyl]-2,6-diol)]","Log P = 5.44 H-D:2,H-R = 2"
2,"C=C(C)[C@@H]1CCC(C)=C[C@H]1c1c(O)cc(CCCC)cc1O [compound 4, ((1′R,2′R)-4-butyl-5′-methyl-2′-(prop-1-en-2-yl)-1′,2′,3′,4′-tetrahydro-[1,1′-biphenyl]-2,6-diol)]","Log P = 5.88 H-D:2,H-R = 2"
3,"C=C(C)[C@@H]1CCC(C)=C[C@H]1c1c(O)cc(CCC)c(C(=O)O)c1O [compound 6, ((1′R,2′R)-2,6-dihydroxy-5′-methyl-2′-(prop-1-en-2-yl)-4-propyl-1′,2′,3′,4′-tetrahydro-[1,1′-biphenyl]-3-carboxylic acid)]",5.74
4,"C=C(C)[C@@H]1CCC(C)=C[C@H]1c1c(O)cc(CCCCC)cc1OC [compound 7, ((1′R,2′R)-6-methoxy-5′-methyl-4-pentyl-2′-(prop-1-en-2-yl)-1′,2′,3′,4′-tetrahydro-[1,1′-biphenyl]-2-ol)]","Log P = 6.47 H-D:1,H-R = 2"
5,"C=C(C)c1ccc(C)cc1-c1c(O)cc(CCCCC)cc1O [compound 8, (5′-methyl-4-pentyl-2′-(prop-1-en-2-yl)-[1,1′-biphenyl]-2,6-diol)]","Log P = 6.85 H-D:2,H-R = 2"
6,"C=C(C)[C@@H]1CCC(C(=O)O)=C[C@H]1c1c(O)cc(CCCCC)cc1O [compound 10, ((1R,6R)-2′,6′-dihydroxy-4′-pentyl-6-(prop-1-en-2-yl)-1,4,5,6-tetrahydro-[1,1′-biphenyl]-3-carboxylic acid)]",5.52
7,"C=C(C)[C@@H]1CCC(CO)=C[C@H]1c1c(O)cc(CCCCC)cc1O [compound 11, ((1′R,2′R)-5′-(hydroxymethyl)-4-pentyl-2′-(prop-1-en-2-yl)-1′,2′,3′,4′-tetrahydro-[1,1′-biphenyl]-2,6-diol)]","Log P = 5.04 H-D:3,H-R = 3"
8,"C=C(C)[C@H]1CC[C@H](C)C[C@@H]1c1c(O)cc(/C=C/c2ccccc2)cc1O [compound 14, (2-((1S,2S,5S)-5-methyl-2-(prop-1-en-2-yl)cyclohexyl)-5-((E)-styryl)phenyl-1,3-diol)]","Log P = 6.78 H-D:2,H-R = 2"
9,"C=C(C)[C@H]1CC[C@H](C)C[C@@H]1c1c(O)cc(/C=C/c2ccccc2O)cc1O [compound 15, (5-((E)-2-hydroxystyryl-2-(1S,2S,5S)-5-methyl-2-(prop-1-en-2-yl)cyclohexyl)phenyl-1,3-diol)]","Log P = 6.48 H-D:3,H-R = 3"
10,C=C(C)[C@H]1CC[C@H](C)C[C@@H]1c1c(O)cc(-c2cc3ccccc3o2)cc1O [compound 16],"Log P = 6.17 H-D:2,H-R = 2"
11,"C=C(C)[C@H]1CCC(C)=C[C@@H]1c1c(O)cc(O)c(C(=O)CCc2ccccc2)c1O [compound 18, (3-phenyl-1-((1′S,2′S)-2,4,6-trihydroxy-5′-methyl-2′-(prop-1-en-2-yl)-1′,2′,3′,4′-tetrahydro-[1,1′-biphenyl]-3-yl)prop-1-one)]","Log P = 6.87 H-D:3,H-R = 4"
12,"C=C(C)[C@H]1CCC(C)=C[C@@H]1c1c(O)cc(CCCCC)cc1O [compound 19, ((1′S,2′S)-5′-methyl-4-pentyl-2′-(propanediol-1-en-2-yl)-1′,2′,3′,4′-tetrahydro-[1,1′-biphenyl]-2,6-diol)]","Log P = 6.33 H-D:2,H-R = 2"
13,"CCCCCc1cc(O)c([C@@H]2C=C(C)CC[C@H]2C(C)C)c(O)c1 [compound 20, ((1′S,2′S)-2′-isopropyl-5′-methyl-4-pentyl-1′,2′,3′,4′-tetrahydro-[1,1′-biphenyl]-2,6-diol)]","Log P = 6.67 H-D:2,H-R = 2"
14,"CCCCCc1cc(O)c([C@@H]2CC(C)CC[C@H]2C(C)C)c(O)c1 (stereo partly drawn) [compound 21, (2-((1R,2S)-2-isopropyl-5-methylcyclohexyl)-5-pentylbenzene-1,3-diol)]","Log P = 7.08 H-D:2,H-R = 2"
15,"CCCCCc1cc(O)c([C@@H]2C=C(CO)CC[C@H]2C(C)C)c(O)c1 [compound 22, ((1′S,2′S)-5′-(hydroxymethyl)-2′-isopropyl-4-pentyl-1′,2′,3′,4′-tetrahydro-[1,1′-biphenyl]-2,6-diol)]","Log P = 5.39 H-D:3,H-R = 3"
16,"CCCCCc1cc(O)c([C@H]2C=C(CO)CC[C@H]2C(C)C)c(O)c1 [compound 23, ((1′R,2′S)-5′-(hydroxymethyl)-2′-isopropyl-4-pentyl-1′,2′,3′,4′-tetrahydro-[1,1′-biphenyl]-2,6-diol)]","Log P = 5.39 H-D:3,H-R = 3"
17,"C=C(C)[C@@H]1CCC(C)=C[C@H]1c1c(O)cc(C(C)(C)CCCCCC)cc1O [compound 24, ((1′R,2′R)-5′-methyl-4-(2-methyloctan-2-yl)-2′-(prop-1-en-2-yl)-1′,2′,3′,4′-tetrahydro-[1,1′-biphenyl]-2,6-diol)]","Log P = 7.38 H-D:2,H-R = 2"
18,"C=C(C)[C@@H]1CCC(C(=O)O)=C[C@H]1c1c(O)cc(C(C)(C)CCCCCC)cc1O [compound 25, ((1R,6R)-2′,6′-dihydroxy-4′-(2-methyloctan-2-yl)-6-(prop-1-en-2-yl)-1,4,5,6-tetrahydro-[1,1′-biphenyl]-3-carboxylic acid)]","Log P = 6.99 H-D:3,H-R = 4"
19,"C=C(C)[C@@H]1CCC(CO)=C[C@H]1c1c(O)cc(C(C)(C)CCCCCC)cc1O [compound 26, ((1′R,2′R)-5′-(hydroxymethyl)-4-(2-methyloctan-2-yl)-2′-(prop-1-en-2-yl)-1′,2′,3′,4′-tetrahydro-[1,1′-biphenyl]-2,6-diol)]","Log P = 6.52 H-D:3,H-R = 3"
20,"CCCCCCC(C)(C)c1cc(O)c([C@@H]2CC(C)CC[C@H]2C(C)C)c(O)c1 (stereo partly drawn) [compound 29, (2-((1R,2S)-2-isopropyl-5-methylcyclohexyl)-5-(2-methyloctan-2-yl)benzene-1,3-diol)]","Log P = 8.55 H-D:2,H-R = 2"
21,CCCCCCC(C)(C)c1cc(OC)c([C@H]2C=C(CO)[C@H]3C[C@@H]2C3(C)C)c(OC)c1 [compound 30],"Log P = 6.39 H-D:1,H-R = 3"
22,CCCCCCC(C)(C)c1cc(OC)c(C2C=C(CO)[C@@H]3C[C@H]2C3(C)C)c(OC)c1 (stereo partly shown) [compound 31],"Log P = 6.39 H-D:1,H-R = 3"
23,"C=C(C)[C@@H]1CCC(C)=C[C@H]1c1c(O)cc(CCCC(=O)O)cc1O [compound 36, (4-((1′R,2′R)-2,6-dihydroxy-5′-methyl-2′-(prop-1-en-2-yl)-1′,2′,3′,4′-tetrahydro-[1,1′-biphenyl]-4-yl)butyric acid)]","Log P = 4.59 H-D:3,H-R = 4"
24,"C=C(C)[C@@H]1CCC(C)=C[C@H]1c1ccc(CCCCC)cc1O [compound 48, ((1′R,2′R)-5′-methyl-4-pentyl-2′-(prop-1-en-2-yl)-1′,2′,3′,4′-tetrahydro-[1,1′-biphenyl]-2-ol)]","Log P = 6.63 H-D:1, H-R = 1"
25,C=C(C)[C@@H]1CCC(C)=C[C@H]1c1c(O)cc(CCCCC)cc1OCC(=O)O [compound 50],"Log P = 5.95 H-D:2,H-R = 4"

# Same assay, conditions: Cannabidiol derivatives; pH 7.4; cited from earlier work
row,SMILES,Log D7.4
1,"C=C(C)[C@@H]1CCC(C)=C[C@H]1c1c(O)cc(CCCCC)c(C(=O)O)c1O [compound 5, ((1′R,2′R)-2,6-dihydroxy-5′-methyl-4-pentyl-2′-(prop-1-en-2-yl)-1′,2′,3′,4′-tetrahydro-[1,1′-biphenyl]-3-carboxylic acid)]",3.15
2,"C=C(C)[C@@H]1CCC(C)=C[C@H]1c1c(O)cc(CCC)c(C(=O)O)c1O [compound 6, ((1′R,2′R)-2,6-dihydroxy-5′-methyl-2′-(prop-1-en-2-yl)-4-propyl-1′,2′,3′,4′-tetrahydro-[1,1′-biphenyl]-3-carboxylic acid)]",2.26
3,"C=C(C)[C@@H]1CCC(C(=O)O)=C[C@H]1c1c(O)cc(CCCCC)cc1O [compound 10, ((1R,6R)-2′,6′-dihydroxy-4′-pentyl-6-(prop-1-en-2-yl)-1,4,5,6-tetrahydro-[1,1′-biphenyl]-3-carboxylic acid)]",2.40
